Values quoted from earlier work in patent publication US6251886A, “Methods of using temozolomide in the treatment of cancers” (priority 1999, dated 2001).
“Also recorded” adds a separate entry of the source. Read-outs that look alike come from different tables or passages of the source.

How the values were obtained:
[1] = test system: D456-MG human glioma xenograft
[2] = test system: leptomeningeal medulloblastoma and pineoblastoma; settings: i.t., Phase I
[3] = test system: Mer- human MG xenograft
[4] = clinical trials
[5] = test system: brain tumors; settings: clinical trials, vs adjuvant BCNU
[6] = oral therapy
[7] = common, but tolerable
[8] = test system: human CNS xenografts; settings: s.c. in athymic nude mice
[9] = systemic temozolomide, rat
[10] = not given; remark: listed apart in the source
[11] = test system: murine tumors; settings: mouse, in vivo
[12] = known property
[13] = test system: advanced melanoma; settings: Phase I, patients with advanced melanoma
[14] = systemic temozolomide, Rhesus monkeys
[15] = test system: advanced melanoma; settings: Phase II, 60 patients with advanced melanoma
[16] = Phase I, single-dose i.v. and oral

For `O=NN(CCCl)C(=O)NCCCl` [BCNU, 1,3-bis(2-chloroethyl)-1-nitrosourea], the “resistance of D456 to BCNU” value [1] is given as “resistant”.

In the case of `N[C@@H](Cc1ccc(N(CCCl)CCCl)cc1)C(=O)O` [melphalan], the activity in patients [2] is listed as “activity has been seen in patients with leptomeningeal medulloblastoma and pineoblastoma”.

In the case of `Cn1nnc2c(C(N)=O)ncn2c1=O` [microcrystalline temozolomide], the “sensitivity to BCNU” value [3] is given as “BCNU-sensitive” and the “resistance of D456 to BCNU” value [1] is given as “BCNU-resistant”.

In the case of `NC(=O)c1ncn2c(=O)n(CCCl)nnc12` [mitozolomide], the thrombocytopenia [4] is listed as “severe and unpredictable thrombocytopenia”.

For `CNNCc1ccc(C(=O)NC(C)C)cc1` [procarbazine], the “activity against brain tumors” value [5] is given as “results comparable to adjuvant BCNU”.

In the case of `Cn1nnc2c(C(N)=O)ncn2c1=O` [temozolomide, 3,4-dihydro-3-methyl-4-oxoimidazo-[5,1-d]-1,2,3,4-tetrazin-8-carboximide], the peak serum concentrations [6] is given as “approximately 10 mg/L”, the side effect [7] is given as “nausea and vomiting” and the “activity against human CNS xenografts” value [8] is given as “activity of temozolomide against a series of human CNS xenografts”. For the same compound, the “penetration into the CSF (CSF to plasma AUC zero to infinity ratio)” value [9] was 41% to 44, the dose-limiting toxicity (Phase I and II, five-day regimen) was “dose-limiting myelosuppression; also recorded: dose-limiting stem cell toxicity” and the anti-neoplastic activity (Phase I and II, five-day regimen, including high-grade glioma) was “intriguing anti-neoplastic activity”. The antineoplastic activity [16] was “trivial antineoplastic activity”, the dose-limiting toxicity [16] was “dose-limiting myelosuppression” and the “effective concentration in vitro” value [10] was 0.1 mM. For the same compound, the “activity against murine tumors” value [11] was “activity against a spectrum of murine tumors”, the “solubility (in words)” value [12] was “marked insolubility; also recorded: poor solubility” and the clinical responses [13] was 17%. For the same compound, the “penetration into the CSF (CSF to plasma AUC zero to infinity ratio)” value [14] was 29.8% and the clinical response [15] was 21%.
